This is an account of results in patent publication US20170007620A1 (priority 2015, published 2017).

“Also recorded” adds a separate entry of the source.

The test system of data set [1] is one carbon pool products (AMP, ADP, ATP). In words: One carbon pool products (AMP, ADP, ATP) in lymphocytes during DHEA-mediated EGSS (FIG. 5). Particulars: DHEA 10 mg/kg daily per os 90 days ± reconstitution regimen.
For data set [2], the system named is neutered mixed breed dogs. In words: Physical symptoms / side effects of DHEA-mediated EGSS with and without reconstitution protocol (Table 1).
From the text: Physical symptoms associated with DHEA-mediated EGSS-induced Nitric Oxide (NO) depletion.
The next data set has as its system ubiquinone. As to the kind of experiment: Ubiquinone concentrations in buffy coat samples of DHEA-treated neutered dogs (FIG. 3). It is filed as in vivo. The protocol:
(§1) FIG. 3. […] BH4 was assayed by the method of Niederwieser, A. et. al. (J Chromatogr. 1984 May 4; 290:237-46). For IPA quantitation, preliminary in vitro studies were performed in which DHEA-treated and control HT-29SF cells were exposed to [^3H]-mevalonic acid (saponified; data not shown). Total RNA was then isolated using the guanidinium thiocyanate method, hydrolyzed to free bases and isolated on an Aminex A9 column, with UV detection, as previously described (Nyce, J et. al., Proc Natl Acad Sci USA. 1993 Apr. 1; 90(7):2960-4). Increased incorporation of [^3H]-mevalonic acid into isopentenyladenosine peaks was interpreted as reduced pools of free unlabeled IPA into which the [^3H]-IPA equilibrated with high specific activity. (See Shultz and Nyce, Cancer Research 51(24):6563-7, 1992). This was borne out in in vivo experiments in neutered dogs treated with DHEA in which buffy coat lymphocytes were extracted and IPA quantitated with UV detection using the same HPLC procedure. […] Ubiquinone concentrations were quantitated from buffy coat samples by HPLC via the method of Abe, K. et. al., (J Nutr Sci Vitaminol (Tokyo). 1978; 24(6):555-67). For ease of presentation, pretreatment values for all 3 determinations (BH4, IPA and ubiquinone) were given a value of 1, with treatment values presented as their respective fraction thereof. […]

A further data set relates to estrogen. As to the kind of experiment: Fecal estrogen in neutered female dogs before and after DHEA-mediated EGSS (FIG. 2). Particulars: feces, DHEA 10 mg/kg p.o.
The next data set concerns norepinephrine. In words: Urinary free norepinephrine in neutered dogs undergoing DHEA-mediated EGSS (FIG. 9). The settings on record: 24 hour urine, DHEA 10 mg/kg 90 days ± reconstitution regimen. It is filed as in vivo. The protocol: FIG. 9. […] Urinary free norepinephrine was quantitated by the method of Mell, L D and Gustafson, A B (Clin Chem 23(3): 473-6, 1977), using a Waters HPLC system with a C18 reverse phase column and UV detector. 24 hour urine was collected from neutered male and female animals in amber glass containment vessels. To 100 ml of urine was added 1 ml of concentrated HCL as preservative. […] This treatment continued for 90 days, at which time further urine specimens were collected and assayed for norepinephrine. The data are reported as the mean±SEM. MNNor, norepinephrine levels as quantitated in neutered male dogs; FNNor, norepinephrine levels as quantitated in neutered female dogs.

A further data set relates to IPA. In words: IPA / isopentenylated tRNA quantitation in buffy coat lymphocytes of DHEA-treated neutered dogs (FIG. 3). It is filed as in vivo. The protocol: as §1
The subject of another data set is phenylalanine. As to the kind of experiment: Plasma phenylalanine in DHEA-treated neutered dogs (FIG. 10). Particulars: DHEA-treated neutered dogs ± reconstitution protocol.
The test system of another data set is serotonin. In words: Serotonin in intestinal mucosa biopsies of DHEA-treated neutered dogs (FIG. 7). It is filed as in vivo. The settings on record: DHEA 10 mg/kg daily for 90 days ± supplementation.
In a further data set the test system is BH4. The arrangement: species or system dogs. Particulars: dog, in vivo.
In another data set the test system is NO. In words: Nitric oxide depletion and replenishment during DHEA-mediated EGSS. It is filed as in vivo. Particulars: animals undergoing DHEA-mediated EGSS.
The test system of another data set is statin-treated cells. The settings on record: cited from earlier work.
The mark [3] stands for this setting: animals undergoing DHEA-mediated EGSS.

Method for estrogen: Analyses were made in serum isolated from 4 intact male and 4 neutered male dogs of mixed breed, and in 3 intact female and 4 neutered female dogs of mixed breed. All were between 12 months and 24 months of age, and between 10 and 25 kg. […] For female dogs, estrogen was measured in anestrous for intact dogs. For both intact and neutered female dogs, the feces were collected over a period of 30 days, and thereafter the estrogens were extracted and quantitated using the procedure of Hofmann and Mostl (J Reprod Fertil Suppl 57:67-70, 2001). Results are reported as mean±SEM.
Comparison of testosterone and estrogen in neutered male and female dogs, respectively, before and after DHEA-mediated EGSS. The same neutered dogs from FIG. 1 were utilized. The same methodology was utilized as in FIG. 1. Dogs were exposed to escalating doses of DHEA until normal or near normal levels of testosterone or estradiol were achieved. […] Results are reported as the mean±SEM.
Method for phenylalanine: Before treatment, 10-15 ml blood samples were taken from male and female neutered dogs, and plasma was collected by low speed centrifugation by the standard method. The method of Neckers, L M et. al. (Clin Chem 27(1):146-8, 1981) was used to quantitate plasma phenylalanine concentrations, with fluorometric detection (280 nm excitation, 330 nm emission), and a 10 ul injection volume.
Method for serotonin: The procedure of D'Souza, L and Glueck, H (Thromb Haemost. 1977 Dec. 15; 38(4):990-1001) was used to quantitate serotonin in intestinal biopsies obtained from neutered male and female dogs. Ten mg of intestinal mucosa was analyzed for each animal. […] Results are presented as percentage of values in pretreatment dogs, mean±SEM. MNSer, serotonin levels as quantitated in neutered male dogs; FNSer, serotonin levels as quantitated in female neutered dogs.

Regarding `Nc1nc(=O)c2c([nH]1)NCC(CNc1ccc(C(=O)N[C@@H](CCC(=O)O)C(=O)O)cc1)N2C=O` (mixture of isomers) [folinic acid], the “one carbon pool products (purines, pyrimidines, S-adenosylmethionine; AMP, ADP, ATP)” value in [1] is reported as “reconstitution”.
Turning to `C[C@]12CC[C@H](O)CC1=CC[C@@H]1[C@@H]2CC[C@]2(C)C(=O)CC[C@@H]12` [DHEA, Dehydroepiandrosterone], the motor incoordination result in data set [2] (setting [3]) was “sometimes occurs”. Also, in data set [2] (animals undergoing DHEA-mediated EGSS with or without supplementation), the lower extremity neuropathy result is given as “observed”. Further, the “susceptibility to infections, particularly ear and eye” value in data set [2] (dogs and cats, DHEA in amounts sufficient to induce EGSS) was “have been noted”. Besides, the fluid retention entry in [2] (dogs, DHEA in amounts sufficient to induce EGSS) was “has been observed”. In addition, the “side effects of DHEA-mediated EGSS” value in [2] (doses required to induce EGSS in neutered animals) was “capable of causing many serious side effects; also recorded: auto-inflammatory-like disorder”. Also, the vascular effects result in [2] (during DHEA-mediated EGSS) was “induction of vasoconstriction”. Moreover, the “ubiquinone levels, continuous treatment” value with ubiquinone (continuous DHEA at doses capable of inducing EGSS, with or without supplementation) is listed as “decline”. The “ubiquinone levels, short term” value with ubiquinone (short term DHEA exposure) is “increased”. Further, in the data set with estrogen, the estrogen level entry is “increases”. Besides, in the data set with norepinephrine, the urinary norepinephrine result is “Depletion”. Also, the “one carbon pool products (purines, pyrimidines, S-adenosylmethionine; AMP, ADP, ATP)” value in [1] is given as “profoundly depleted; also recorded: Depletion”. In the data set on IPA (exogenous DHEA in amounts sufficient to induce EGSS), the IPA level result was “becomes depleted”. Besides, in the data set with IPA (neutered dogs treated with DHEA, buffy coat lymphocytes, HPLC UV), the “total pools of isopentenylated tRNA” value is listed as “found to be depleted”. Also, in the data set on phenylalanine, the plasma phenylalanine levels result is reported as “Increase”. In addition, in the data set on serotonin, the serotonin level entry is reported as “Depletion”. For the same compound, the BH4 level result with BH4 is listed as “depleted”. For the same compound, the NO level result in the data set with NO is “depleted”.
Consider `CC(C)=CCNc1ncnc2nc[nH]c12` [Isopentenyladenine], for which the “activity in restoring DNA synthesis relative to mevalonate” value in the data set with statin-treated cells was “approximately 100 fold”.
As for `N[C@@H](Cc1ccc(O)c(O)c1)C(=O)O` [L-DOPA], the emesis entry in [2] (dogs, alternative protocol with L-DOPA, pyridoxine, ascorbate, SAMe) is recorded as “emesis in some dogs”.
Consider `O=[N+]([O-])[O-].[K+]` [potassium nitrate], for which the “symptoms associated with NO depletion” value in data set [2] (setting [3]) was “eliminating the symptoms”. In the data set with NO, the NO level entry is listed as “can replenish NO”.
